pIC50: −log10 of the molar value. Several values for one entry are separate records, joined by “and”; a condition that tells them apart may be missing. Equal values may be shown once. Where a name gives a salt, the structure may show the parent alone.
Key:
DDR1 kinase [1] = target: T1, DDR1 kinase (Homo sapiens, UniProt Q08345); experiment: Evaluation of DDR1 kinase inhibition in DDR1-expressing U2OS cells (type I collagen stimulation, PathHunter detection); type: cell-based; parameters: host or cells: U2OS; conditions: type I collagen 50 µg/mL stimulation, duplicate, read-out: DDR-1 IC50
Procedure: The solution was further diluted in an E-MEM medium (Fujifilm Wako Pure Chemicals, 051-07615) containing 10% fetal bovine serum (FBS, Gibco, 10270106) to 60000, 6000, 600, 60, 6, and 0.6 nM to prepare test substance solutions. 2. […] On the following day, after the plate was left at room temperature for 1 hour, a detection solution was added to the wells at […] according to the handling instructions for the PathHunter® Detection Kit (DiscoverX, 93-0001), and then incubated at room temperature for 2 hours. After the incubation, a luminescence intensity was measured by Envision (Perkin-Elmer). Tests were performed in duplicate. 3.
Target sequence in this assay (Q08345 19-913): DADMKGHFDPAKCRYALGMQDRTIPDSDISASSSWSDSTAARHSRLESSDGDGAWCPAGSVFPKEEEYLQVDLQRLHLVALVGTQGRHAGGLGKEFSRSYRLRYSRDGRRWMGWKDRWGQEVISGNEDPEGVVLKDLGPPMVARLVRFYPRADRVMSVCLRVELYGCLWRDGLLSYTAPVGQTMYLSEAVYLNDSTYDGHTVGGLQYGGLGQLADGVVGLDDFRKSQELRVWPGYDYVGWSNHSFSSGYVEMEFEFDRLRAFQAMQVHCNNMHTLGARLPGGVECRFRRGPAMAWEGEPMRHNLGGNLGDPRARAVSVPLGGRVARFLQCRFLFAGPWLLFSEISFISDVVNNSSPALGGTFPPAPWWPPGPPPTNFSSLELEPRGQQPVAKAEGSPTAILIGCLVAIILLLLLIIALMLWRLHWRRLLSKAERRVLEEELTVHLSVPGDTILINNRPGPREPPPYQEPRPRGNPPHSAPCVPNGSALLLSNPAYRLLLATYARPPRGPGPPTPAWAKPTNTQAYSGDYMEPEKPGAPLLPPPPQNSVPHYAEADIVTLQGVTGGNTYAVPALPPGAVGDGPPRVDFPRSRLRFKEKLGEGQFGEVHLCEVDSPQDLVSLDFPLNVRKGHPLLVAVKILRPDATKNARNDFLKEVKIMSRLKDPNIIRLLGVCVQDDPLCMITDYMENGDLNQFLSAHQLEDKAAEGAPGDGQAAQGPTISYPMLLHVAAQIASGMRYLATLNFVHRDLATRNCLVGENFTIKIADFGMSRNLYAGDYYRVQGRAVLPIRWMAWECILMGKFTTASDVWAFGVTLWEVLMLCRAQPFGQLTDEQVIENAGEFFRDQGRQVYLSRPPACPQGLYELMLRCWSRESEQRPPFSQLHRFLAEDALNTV

DDR1 kinase [2] = target: T1, DDR1 kinase; experiment: Evaluation of DDR1 kinase inhibition (LANCE Ultra TR-FRET kinase assay); type: biochemical; parameters: purchased Carna Biosciences 08-113; conditions: DDR1 protein 0.5 nM, LANCE Ultra ULight-poly GAT substrate, 2 hours at room temperature, duplicate; read-out: DDR-1 IC50
Target sequence in this assay (Q08345 19-876 isoform Q08345-2 limits assumed): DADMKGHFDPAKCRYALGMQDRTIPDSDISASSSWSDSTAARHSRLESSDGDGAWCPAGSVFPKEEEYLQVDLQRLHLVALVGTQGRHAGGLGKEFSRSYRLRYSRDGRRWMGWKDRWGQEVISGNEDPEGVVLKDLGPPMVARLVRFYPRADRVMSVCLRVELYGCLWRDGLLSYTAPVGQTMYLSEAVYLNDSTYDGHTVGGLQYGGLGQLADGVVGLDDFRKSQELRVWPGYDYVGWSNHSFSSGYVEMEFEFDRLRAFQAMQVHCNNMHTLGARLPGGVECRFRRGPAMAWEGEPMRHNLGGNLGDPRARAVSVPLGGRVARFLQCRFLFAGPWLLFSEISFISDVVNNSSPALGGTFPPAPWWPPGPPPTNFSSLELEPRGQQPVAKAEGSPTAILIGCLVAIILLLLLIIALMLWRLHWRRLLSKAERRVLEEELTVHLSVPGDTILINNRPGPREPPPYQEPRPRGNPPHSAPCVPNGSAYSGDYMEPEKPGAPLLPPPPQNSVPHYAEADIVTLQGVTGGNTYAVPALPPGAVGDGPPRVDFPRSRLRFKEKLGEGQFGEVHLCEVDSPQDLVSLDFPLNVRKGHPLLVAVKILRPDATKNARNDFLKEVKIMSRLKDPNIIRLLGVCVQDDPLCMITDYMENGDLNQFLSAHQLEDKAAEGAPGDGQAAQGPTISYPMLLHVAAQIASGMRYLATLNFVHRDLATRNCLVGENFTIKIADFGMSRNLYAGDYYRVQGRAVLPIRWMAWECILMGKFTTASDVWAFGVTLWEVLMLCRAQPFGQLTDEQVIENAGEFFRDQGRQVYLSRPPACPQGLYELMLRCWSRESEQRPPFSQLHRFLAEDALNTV

Compound	pIC50 (DDR1 kinase [1])	pIC50 (DDR1 kinase [2])
Nc1cc(C(=O)N2CCC(c3nn(CC(=O)N4CCO[C@H](C(F)(F)F)C4)c4cccc(F)c34)CC2)ccn1 [Compound E-90, 2-{3-[1-(2-aminopyridine-4-carbonyl)piperidin-4-yl]-4-fluoro-1H-indazol-1-yl]-1-[(2S)-2-(trifluoromethyl)morpholin-4-yl]ethan-1-one]	7.02	8.13
Cc1ccc2c(n1)c(C1CN(C(=O)c3ccnc(NC4CC4)c3)C1)nn2CC(=O)N1CCC[C@H]1C(F)(F)F [Compound E-130, 2-(3-(1-[2-(cyclopropylamino)pyridine-4-carbonyl]azetidin-3-yl}-5-methyl-1H-pyrazolo[4,3-b}pyridin-1-yl)-1-[(2S)-2-(trifluoromethyl)pyrrolidin-1-yl]ethan-1-one]	7.09	8.24
Nc1cc(C(=O)N2CC(c3nn(Cc4cn(Cc5ccccc5)nn4)c4cccc(F)c34)C2)ccn1 [Compound E-35, 4-(3-{1-[(1-benzyl-1H-1,2,3-triazol-4-yl)methyl]-4-fluoro-1H-indazol-3-yl}azetidine-1-carbonyl)pyridin-2-amine hydrochloride]	5.70	7.51
CN(CC(F)(F)F)C(=O)Cn1nc(C2CN(C(=O)c3cc(N)ncc3F)C2)c2c(F)cccc21 [Compound E-59, 2-{3-[1-(2-amino-5-fluoropyridine-4-carbonyl)azetidin-3-yl]-4-fluoro-1H-indazol-1-yl}-N-methyl-N-(2,2,2-trifluoroethyl)acetamide]	6.77	8.27
Cc1ccc2c(n1)c(C1CN(C(=O)c3cc(N)ncc3F)C1)nn2CC(=O)N1CCOC(C(F)(F)F)C1 [Compound E-185, 2-{3-[1-(2-amino-5-fluoropyridine-4-carbonyl)azetidin-3-yl]-5-methyl-1H-pyrazolo(4,3-blpyridin-1-yl}-1-[{(2R)-2-(trifluoromethyl)morpholin-4-yl]ethan-1-one p-toluenesulfonate]	5.48	7.66
Nc1ncc(F)c(C(=O)N2CC(c3nn(CC(=O)N4CCC[C@H]4C(F)(F)F)c4ccccc34)C2)n1 [Compound E-22, 2-{3-[1-(2-amino-5-fluoropyrimidine-4-carbonyl)azetidin-3-yl]-1H-indazol-1-yl}-1-[(2S)-2-(trifluoromethyl)pyrrolidin-1-yl]ethan-1-one]	7.74	8.25
O=C(c1cnn2ccsc12)N1CC(c2nn(CC(=O)N3CCC[C@H]3C(F)(F)F)c3cc(F)cc(F)c23)C1 [Compound E-102]	5.48	7.89
CNc1cc(C(=O)N2CC(c3nn(CC(=O)NCC(F)(F)F)c4cccc(Cl)c34)C2)ccn1 [Compound E-63, 2-(4-chloro-3-{1-[2-(methylamino)pyridine-4-carbonyl]azetidin-3-yl]-1H-indazol-1-yl)-N-(2,2,2-trifluoroethyl)acetamide]	6.85	8.37
Cc1cnc(N)cc1C(=O)N1CC(c2nn(CC(=O)N3CCC[C@H]3C(F)(F)F)c3cc(F)cc(F)c23)C1 [Compound E-78, 2-{3-[1-(2-amino-5-methylpyridine-4-carbonyl)azetidin-3-yl]-4,6-difluoro-1H-indazol-1-yl}-1-[(2S)-2-(trifluoromethyl)pyrrolidin-1-yl]ethan-1-one hydrochloride]	6.42	7.89
CCN(CC)C(=O)Cn1nc(C2CN(C(=O)c3cc(N)ncc3F)C2)c2ccccc21 [Compound E-263, 2-{3-[1-(2-amino-5-fluoropyridine-4-carbonyl)azetidin-3-yl]-1H-indazol-1-yl}-N,N-diethylacetamide]	7.19	7.82
CN(CC1CC1)C(=O)Cn1nc(C2CN(C(=O)c3ccnc(N)c3)C2)c2ccccc21 [Compound E-229, 2-{3-[1-(2-aminopyridine-4-carbonyl)azetidin-3-yl]-1H-indazol-1-yl}-N-(cyclopropylmethyl)-N-methylacetamide]	7.09	8.22
Nc1cc(C(=O)N2CC(c3nn(CC(=O)NCC(F)(F)F)c4ccccc34)C2)ccn1 [Compound E-211, 2-{3-[1-(2-aminopyridine-4-carbonyl)azetidin-3-yl]-1H-indazol-1-yl}-N-(2,2,2-trifluoroethyl)acetamide]	6.54	7.57
Cc1nc(N)sc1C(=O)N1CC(c2nn(CC(=O)N3CCCC3COC(F)(F)F)c3cncc(F)c23)C1 [Compound E-183, 2-{3-[1-(2-amino-4-methyl-1,3-thiazole-5-carbonylazetidin-3-yl)-4-fluoro-1H-pyrazolo[3,4-c]pyridin-1-yl}-1-[(2S)-2-[(trifluoromethoxy)methyl]pyrrolidin-1-yl]ethan-1-one p-toluenesulfonate]	6.30	8.06
Nc1cc(C(=O)N2CC(c3nn(Cc4nc(C(F)(F)F)no4)c4ccccc34)C2)c(F)cn1 [Compound E-18, 5-fluoro-4-[3-(1-{[3-(trifluoromethyl)-1,2,4-oxadiazol-5-yl]methyl}-1H-indazol-3-yl)azetidine-1-carbonyl]pyridin-2-amine]	7.59	8.16
CC1(C)COCCN1C(=O)Cn1nc(C2CN(C(=O)c3ccnc(N)c3)C2)c2ccccc21 [Compound E-188, 2-{3-[1-(2-aminopyridine-4-carbonyl)azetidin-3-yl]-1H-indazol-1-yl}-1-(3,3-dimethylmorpholin-4-yl)ethan-1-one]	7.05	8.10
O=C(c1ccnc(NC2CC2)c1)N1CC(c2nn(CC(=O)N3CCC[C@H]3C(F)(F)F)c3cc(F)cc(F)c23)C1 [Compound E-72, 2-(3-{1-[2-(cyclopropylamino)pyridine-4-carbonyl]azetidin-3-yl)-4,6-difluoro-1H-indazol-1-yl)-1-[(2S)-2-(trifluoromethyl)pyrrolidin-1 - yllethan-1-one hydrochloride]	6.70	8.07
Cc1ccnc2c1c(C1CN(C(=O)c3ccnc(N)c3)C1)nn2CC(=O)N1CCC[C@H]1C(F)(F)F [Compound E-15, 2-{3-[1-(2-aminopyridine-4-carbonyl)azetidin-3-yl]-4-methyl-1H-pyrazolo[3,4-b]pyridin-1-yl}-1-[(2S)-2-(trifluoromethyl)pyrrolidin-1-yl]ethan-1-one]	5.59	6.68
CC(C)N(C)C(=O)Cn1nc(C2CN(C(=O)c3cc(N)ncc3F)C2)c2ccccc21 [Compound E-253, 2-{3-[1-(2-amino-5-fluoropyridine-4-carbonyl)azetidin-3-yl]-1H. indazol-1-yl}-N-methyl-N-(propan-2-yl)acetamide]	6.77	8.02
O=C(Cn1nc(C2CN(C(=O)c3cc(NC4CC4)ncn3)C2)c2c(F)cc(F)cc21)NCC(F)(F)F [Compound E-31, 2-(3-{1-[6-(cyclopropylamino)pyrimidine-4-carbonyl]azetidin-3-yl}-4,6-difluoro-1H-indazol-1-yl)-N-(2,2,2-trifluoroethyl)acetamide]	6.16	7.68
O=C(c1ccnc(NC2CC2)c1)N1CC(c2nn(CC(=O)N3CCC[C@H]3C(F)(F)F)c3cccnc23)C1 [Compound E-121, 2-(3-{1-[2-(cyclopropylamino)pyridine-4-carbonyl]azetidin-3-yl}-1H-pyrazolo[4,3-b]pyridin-1-yl)-1-[(2S)-2-(trifluoromethyl)pyrrolidin-1-yl]ethan-1-one]	6.77	7.62
CN(C(=O)Cn1nc(C2CN(C(=O)c3cc(N)ncc3F)C2)c2ccccc21)C1CCOCC1 [Compound E-255, 2-{8-[1-(2-amino-5-fluoropyridine-4-carbonyl)azetidin-8-yl]-1H-indazol-1-yl}-N-methyl-N-(oxan-4-yl)acetamide]	6.74	7.66
Nc1cc(C(=O)N2CC(c3nn(CC(=O)N4CCC[C@H]4C(F)(F)F)c4cncc(F)c34)C2)ccn1 [Compound E-54, 2-{3-[1-(2-aminopyridine-4-carbonyl)azetidin-3-yl]-4-fluoro-1H-pyrazolo[3,4-c]pyridin-1-yl}-1-[(2S)-2-(trifluoromethyl)pyrrolidin-1-yl]ethan-1-one hydrochloride]	6.74	8.21
COC[C@@H]1CCCN1C(=O)Cn1nc(C2CN(C(=O)c3ccnc(N)c3)C2)c2ccccc21 [Compound E-228, 2-{3-[1-(2-aminopyridine-4-carbonyl)azetidin-3-yl}-1H-indazol-1-yl}-1-[(2S)-2-(methoxymethyl)pyrrolidin-1-yl]ethan-1-one]	7.02	8.05
O=C(Cn1nc(C2CN(C(=O)c3ccnc4[nH]ccc34)C2)c2c(Cl)cccc21)NCC(F)(F)F [Compound E-61]	6.02 and 5.80	8.55
Nc1cc(C(=O)N2CC(c3nn(Cc4noc(-c5ccc(F)cc5)n4)c4cccc(F)c34)C2)ccn1 [Compound E-116, 4-[3-(4-fluoro-1-{[5-(4-fluorophenyl)-1,2,4-oxadiazol-3-yl]methyl}-1H-indazol-3-yl)azetidine-1-carbonyl]pyridin-2-amine]	6.10	8.36
Nc1nccc(C(=O)N2CC(c3nn(CC(=O)N4CCC[C@H]4C(F)(F)F)c4cc(F)cc(F)c34)C2)n1 [Compound E-129, 2-{3-[1-(2-aminopyrimidine-4-carbonyl)azetidin-3-yl}-4,6-difluoro-1H-indazol-1-yl}-1-[(2S)-2-(trifluoromethyl)pyrrolidin-1-yl]ethan-1-one]	7.15	8.20

— patent publication EP4624465A1, “COMPOUND SERVING AS DDR1 KINASE INHIBITOR, AND MEDICINE” (Nippon Shinyaku Co., Ltd., priority 2022, dated 2024)
